Measurements taken from ChEMBL document CHEMBL3046161, “Synthesis of potential antitubercular and antimicrobial s-triazine-based scaffolds via Suzuki cross-coupling reaction” (2013).
Converted amounts (≈) assume the structure as drawn.

Tests used:
Assay type in all cases: functional
[1] = system: Mycobacterium tuberculosis; test: Antimycobacterial activity against Mycobacterium tuberculosis H37Rv assessed as growth inhibition measured within 10 days by BACTEC MGIT method; details: 240 h
Aspergillus fumigatus [2] = test: Antifungal activity against Aspergillus fumigatus MTCC 343 assessed as growth inhibition after 48 hr by agar streak dilution method; details: MTCC 343, 48 h
Candida albicans [3] = test: Antifungal activity against Candida albicans MTCC 183 assessed as growth inhibition after 48 hr by agar streak dilution method; details: MTCC 183, 48 h
Escherichia coli [4] = test: Antibacterial activity against Escherichia coli MTCC 739 assessed as growth inhibition at 3.12 to 50 ug/mL after 24 hr by agar disk diffusion method
Aspergillus niger [5] = test: Antifungal activity against Aspergillus niger MTCC 282 assessed as growth inhibition after 48 hr by agar streak dilution method; details: MTCC 282, 48 h
Candida albicans [6] = test: Antifungal activity against Candida albicans MTCC 183 assessed as growth inhibition at 3.12 to 50 ug/mL after 24 hr by agar disk diffusion method
Proteus vulgaris [7] = test: Antibacterial activity against Proteus vulgaris MTCC 1771 assessed as growth inhibition at 3.12 to 50 ug/mL after 24 hr by agar disk diffusion method
Staphylococcus aureus [8] = test: Antibacterial activity against Staphylococcus aureus MTCC 96 assessed as growth inhibition after 24 hr by agar streak dilution method; details: MTCC 96, 24 h
Klebsiella pneumoniae [9] = test: Antibacterial activity against Klebsiella pneumoniae MTCC 109 assessed as growth inhibition after 24 hr by agar streak dilution method; details: MTCC 109, 24 h
Aspergillus clavatus [10] = test: Antifungal activity against Aspergillus clavatus MTCC 1323 assessed as growth inhibition at 3.12 to 50 ug/mL after 24 hr by agar disk diffusion method
Salmonella typhi [11] = test: Antibacterial activity against Salmonella enterica subsp. enterica serovar Typhi MTCC 733 assessed as growth inhibition after 24 hr by agar streak dilution method; details: MTCC 733, 24 h
Aspergillus clavatus [12] = test: Antifungal activity against Aspergillus clavatus MTCC 1323 assessed as growth inhibition after 48 hr by agar streak dilution method; details: MTCC 1323, 48 h
Pseudomonas aeruginosa [13] = test: Antibacterial activity against Pseudomonas aeruginosa MTCC 741 assessed as growth inhibition after 24 hr by agar streak dilution method; details: MTCC 741, 24 h
Proteus vulgaris [14] = test: Antibacterial activity against Proteus vulgaris MTCC 1771 assessed as growth inhibition after 24 hr by agar streak dilution method; details: MTCC 1771, 24 h
Aspergillus fumigatus [15] = test: Antifungal activity against Aspergillus fumigatus MTCC 343 assessed as growth inhibition at 3.12 to 50 ug/mL after 24 hr by agar disk diffusion method
Bacillus cereus [16] = test: Antibacterial activity against Bacillus cereus MTCC 430 assessed as growth inhibition at 3.12 to 50 ug/mL after 24 hr by agar disk diffusion method
Bacillus cereus [17] = test: Antibacterial activity against Bacillus cereus MTCC 430 assessed as growth inhibition after 24 hr by agar streak dilution method; details: MTCC 430, 24 h
Salmonella typhi [18] = test: Antibacterial activity against Salmonella enterica subsp. enterica serovar Typhi MTCC 733 assessed as growth inhibition at 3.12 to 50 ug/mL after 24 hr by agar disk diffusion method
Klebsiella pneumoniae [19] = test: Antibacterial activity against Klebsiella pneumoniae MTCC 109 assessed as growth inhibition at 3.12 to 50 ug/mL after 24 hr by agar disk diffusion method
Pseudomonas aeruginosa [20] = test: Antibacterial activity against Pseudomonas aeruginosa MTCC 741 assessed as growth inhibition at 3.12 to 50 ug/mL after 24 hr by agar disk diffusion method
Staphylococcus aureus [21] = test: Antibacterial activity against Staphylococcus aureus MTCC 96 assessed as growth inhibition at 3.12 to 50 ug/mL after 24 hr by agar disk diffusion method
[22] = system: Mycobacterium tuberculosis; test: Antimycobacterial activity against Mycobacterium tuberculosis H37Rv assessed as growth inhibition at MIC after 12 to 28 days by Lowenstein and Jensen agar dilution method
Escherichia coli [23] = test: Antibacterial activity against Escherichia coli MTCC 739 assessed as growth inhibition after 24 hr by agar streak dilution method; details: MTCC 739, 24 h
Aspergillus niger [24] = test: Antifungal activity against Aspergillus niger MTCC 282 assessed as growth inhibition at 3.12 to 50 ug/mL after 24 hr by agar disk diffusion method
[25] = system: Mycobacterium tuberculosis; test: Antimycobacterial activity against Mycobacterium tuberculosis H37Rv assessed as growth inhibition after 12 to 28 days by Lowenstein and Jensen agar dilution method
Shigella flexneri [26] = test: Antibacterial activity against Shigella flexneri MTCC 1457 assessed as growth inhibition at 3.12 to 50 ug/mL after 24 hr by agar disk diffusion method
Shigella flexneri [27] = test: Antibacterial activity against Shigella flexneri MTCC 1457 assessed as growth inhibition after 24 hr by agar streak dilution method; details: MTCC 1457, 24 h

Work on `CCOc1ccc(NC(=O)CNc2ccc(-c3nc(N4CC(C)CC(C)C4)nc(N4CC(C)CC(C)C4)n3)cc2)cc1` (stereo not drawn) yielded an MIC [1] greater than 6.25 µg/mL, an MIC (Aspergillus fumigatus [2]) greater than 50 µg/mL and an MIC (Candida albicans [3]) of 25 µg/mL (≈ 43.7 µM). The “inhibition zone (IZ)” value (Escherichia coli [4]) was 24 mm, the MIC (Aspergillus niger [5]) was 25 µg/mL (≈ 43.7 µM) and the “inhibition zone (IZ)” value (Candida albicans [6]) was 24 mm. For the same compound, the “inhibition zone (IZ)” value (Proteus vulgaris [7]) was 25 mm, the MIC (Staphylococcus aureus [8]) was 25 µg/mL (≈ 43.7 µM) and the MIC (Klebsiella pneumoniae [9]) was 50 µg/mL (≈ 87.4 µM). The “inhibition zone (IZ)” value (Aspergillus clavatus [10]) was 14 mm, the MIC (Salmonella typhi [11]) was 25 µg/mL (≈ 43.7 µM) and the MIC (Aspergillus clavatus [12]) was 50 µg/mL (≈ 87.4 µM). The MIC (Pseudomonas aeruginosa [13]) was 50 µg/mL (≈ 87.4 µM), the MIC (Proteus vulgaris [14]) was 12.5 µg/mL (≈ 21.9 µM) and the “inhibition zone (IZ)” value (Aspergillus fumigatus [15]) was less than 10 mm. For the same compound, the “inhibition zone (IZ)” value (Bacillus cereus [16]) was 20 mm, the MIC (Bacillus cereus [17]) was 50 µg/mL (≈ 87.4 µM) and the “inhibition zone (IZ)” value (Salmonella typhi [18]) was 21 mm. For the same compound, the “inhibition zone (IZ)” value (Klebsiella pneumoniae [19]) was less than 10 mm, the “inhibition zone (IZ)” value (Pseudomonas aeruginosa [20]) was 16 mm and the “inhibition zone (IZ)” value (Staphylococcus aureus [21]) was 19 mm. For the same compound, the “growth inhibition (GI)” value [22] was 98%, the MIC (Escherichia coli [23]) was 12.5 µg/mL (≈ 21.9 µM) and the “inhibition zone (IZ)” value (Aspergillus niger [24]) was 19 mm. For the same compound, the MIC [25] was 25 µg/mL (≈ 43.7 µM), the “inhibition zone (IZ)” value (Shigella flexneri [26]) was 22 mm and the MIC (Shigella flexneri [27]) was 25 µg/mL (≈ 43.7 µM).
For `CC(=O)Nc1ccc(NC(=O)CNc2ccc(-c3nc(N4CC(C)CC(C)C4)nc(N4CC(C)CC(C)C4)n3)cc2)cc1` (stereo not drawn), the MIC [1] was greater than 6.25 µg/mL, the MIC (Aspergillus fumigatus [2]) was 50 µg/mL (≈ 85.5 µM) and the MIC (Candida albicans [3]) was 50 µg/mL (≈ 85.5 µM). For the same compound, the “inhibition zone (IZ)” value (Escherichia coli [4]) was 20 mm, the MIC (Aspergillus niger [5]) was 12.5 µg/mL (≈ 21.4 µM) and the “inhibition zone (IZ)” value (Candida albicans [6]) was 17 mm. The “inhibition zone (IZ)” value (Proteus vulgaris [7]) was 27 mm, the MIC (Staphylococcus aureus [8]) was 50 µg/mL (≈ 85.5 µM) and the MIC (Klebsiella pneumoniae [9]) was 50 µg/mL (≈ 85.5 µM). The “inhibition zone (IZ)” value (Aspergillus clavatus [10]) was 19 mm, the MIC (Salmonella typhi [11]) was 50 µg/mL (≈ 85.5 µM) and the MIC (Aspergillus clavatus [12]) was 50 µg/mL (≈ 85.5 µM). The MIC (Pseudomonas aeruginosa [13]) was 50 µg/mL (≈ 85.5 µM), the MIC (Proteus vulgaris [14]) was 6.25 µg/mL (≈ 10.7 µM) and the “inhibition zone (IZ)” value (Aspergillus fumigatus [15]) was 12 mm. For the same compound, the “inhibition zone (IZ)” value (Bacillus cereus [16]) was 12 mm, the MIC (Bacillus cereus [17]) was 50 µg/mL (≈ 85.5 µM) and the “inhibition zone (IZ)” value (Salmonella typhi [18]) was less than 10 mm. For the same compound, the “inhibition zone (IZ)” value (Klebsiella pneumoniae [19]) was less than 10 mm, the “inhibition zone (IZ)” value (Pseudomonas aeruginosa [20]) was 19 mm and the “inhibition zone (IZ)” value (Staphylococcus aureus [21]) was less than 10 mm. For the same compound, the “growth inhibition (GI)” value [22] was 95%, the MIC (Escherichia coli [23]) was 50 µg/mL (≈ 85.5 µM) and the “inhibition zone (IZ)” value (Aspergillus niger [24]) was 22 mm. For the same compound, the MIC [25] was 62.5 µg/mL (≈ 107 µM), the “inhibition zone (IZ)” value (Shigella flexneri [26]) was 16 mm and the MIC (Shigella flexneri [27]) was 50 µg/mL (≈ 85.5 µM).
In the case of `CC1CC(C)CN(c2nc(-c3ccc(NCC(=O)Nc4nc5ccccc5s4)cc3)nc(N3CC(C)CC(C)C3)n2)C1` (stereo not drawn), the MIC [1] is reported as greater than 6.25 µg/mL, the MIC (Aspergillus fumigatus [2]) is reported as greater than 50 µg/mL and the MIC (Candida albicans [3]) is reported as greater than 50 µg/mL. The “inhibition zone (IZ)” value (Escherichia coli [4]) was 14 mm, the MIC (Aspergillus niger [5]) was 50 µg/mL (≈ 85.5 µM) and the “inhibition zone (IZ)” value (Candida albicans [6]) was less than 10 mm. The “inhibition zone (IZ)” value (Proteus vulgaris [7]) was 18 mm, the MIC (Staphylococcus aureus [8]) was 50 µg/mL (≈ 85.5 µM) and the MIC (Klebsiella pneumoniae [9]) was 50 µg/mL (≈ 85.5 µM). For the same compound, the “inhibition zone (IZ)” value (Aspergillus clavatus [10]) was less than 10 mm, the MIC (Salmonella typhi [11]) was 50 µg/mL (≈ 85.5 µM) and the MIC (Aspergillus clavatus [12]) was greater than 50 µg/mL. The MIC (Pseudomonas aeruginosa [13]) was 50 µg/mL (≈ 85.5 µM), the MIC (Proteus vulgaris [14]) was 50 µg/mL (≈ 85.5 µM) and the “inhibition zone (IZ)” value (Aspergillus fumigatus [15]) was less than 10 mm. For the same compound, the “inhibition zone (IZ)” value (Bacillus cereus [16]) was 14 mm, the MIC (Bacillus cereus [17]) was 50 µg/mL (≈ 85.5 µM) and the “inhibition zone (IZ)” value (Salmonella typhi [18]) was 12 mm. The “inhibition zone (IZ)” value (Klebsiella pneumoniae [19]) was less than 10 mm, the “inhibition zone (IZ)” value (Pseudomonas aeruginosa [20]) was 16 mm and the “inhibition zone (IZ)” value (Staphylococcus aureus [21]) was 16 mm. The “growth inhibition (GI)” value [22] was 94%, the MIC (Escherichia coli [23]) was 50 µg/mL (≈ 85.5 µM) and the “inhibition zone (IZ)” value (Aspergillus niger [24]) was less than 10 mm. For the same compound, the MIC [25] was 500 µg/mL (≈ 855 µM), the “inhibition zone (IZ)” value (Shigella flexneri [26]) was less than 10 mm and the MIC (Shigella flexneri [27]) was 50 µg/mL (≈ 85.5 µM).
Compound `CC1CC(C)CN(c2nc(-c3ccc(NCC(=O)Nc4ccc(F)cc4)cc3)nc(N3CC(C)CC(C)C3)n2)C1` (stereo not drawn) has an MIC [1] greater than 6.25 µg/mL, an MIC (Aspergillus fumigatus [2]) of 50 µg/mL (≈ 91.6 µM) and an MIC (Candida albicans [3]) of 50 µg/mL (≈ 91.6 µM). For the same compound, the “inhibition zone (IZ)” value (Escherichia coli [4]) was 20 mm, the MIC (Aspergillus niger [5]) was 50 µg/mL (≈ 91.6 µM) and the “inhibition zone (IZ)” value (Candida albicans [6]) was 15 mm. The “inhibition zone (IZ)” value (Proteus vulgaris [7]) was 16 mm, the MIC (Staphylococcus aureus [8]) was 12.5 µg/mL (≈ 22.9 µM) and the MIC (Klebsiella pneumoniae [9]) was 50 µg/mL (≈ 91.6 µM). For the same compound, the “inhibition zone (IZ)” value (Aspergillus clavatus [10]) was 13 mm, the MIC (Salmonella typhi [11]) was 25 µg/mL (≈ 45.8 µM) and the MIC (Aspergillus clavatus [12]) was 50 µg/mL (≈ 91.6 µM). The MIC (Pseudomonas aeruginosa [13]) was 12.5 µg/mL (≈ 22.9 µM), the MIC (Proteus vulgaris [14]) was 50 µg/mL (≈ 91.6 µM) and the “inhibition zone (IZ)” value (Aspergillus fumigatus [15]) was 22 mm. For the same compound, the “inhibition zone (IZ)” value (Bacillus cereus [16]) was 22 mm, the MIC (Bacillus cereus [17]) was 25 µg/mL (≈ 45.8 µM) and the “inhibition zone (IZ)” value (Salmonella typhi [18]) was 21 mm. For the same compound, the “inhibition zone (IZ)” value (Klebsiella pneumoniae [19]) was 21 mm, the “inhibition zone (IZ)” value (Pseudomonas aeruginosa [20]) was 27 mm and the “inhibition zone (IZ)” value (Staphylococcus aureus [21]) was 20 mm. For the same compound, the “growth inhibition (GI)” value [22] was 97%, the MIC (Escherichia coli [23]) was 25 µg/mL (≈ 45.8 µM) and the “inhibition zone (IZ)” value (Aspergillus niger [24]) was 18 mm. For the same compound, the MIC [25] was 25 µg/mL (≈ 45.8 µM), the “inhibition zone (IZ)” value (Shigella flexneri [26]) was 25 mm and the MIC (Shigella flexneri [27]) was 12.5 µg/mL (≈ 22.9 µM).
